Data as given in EP3057949B1, “SECONDARY ALCOHOL QUINOLINYL MODULATORS OF ROR GAMMA T” (Janssen Pharmaceutica NV, priority 2013, dated 2015).
Counter-ions that a name gives are not always drawn.

Columns and labels:
[1] = target: T1, human RORγt ligand binding domain (RORγt LBD) (Homo sapiens, UniProt P51449); assay: ThermoFluor® Assay (RORγt thermal shift binding); conditions: 0.065 mg/mL RORγt, 60 µM 1,8-ANS, pH 7.0; estimated from concentration response curves
T1 construct: His-tag (N); TurboTEV protease cleavage site (ENLYFQG) (N); made in house; host or cells: E. coli (pHIS1, modified pET vector)
T1 sequence (P51449 258-518): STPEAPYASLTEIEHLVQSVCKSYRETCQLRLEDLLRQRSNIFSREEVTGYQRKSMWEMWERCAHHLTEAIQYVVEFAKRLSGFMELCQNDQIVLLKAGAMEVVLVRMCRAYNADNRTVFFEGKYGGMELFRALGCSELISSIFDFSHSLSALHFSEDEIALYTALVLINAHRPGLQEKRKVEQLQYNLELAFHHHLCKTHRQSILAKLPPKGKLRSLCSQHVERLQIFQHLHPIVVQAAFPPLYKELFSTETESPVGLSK
Procedure: This approach is applicable to a wide variety of systems, and rigorous in theoretical interpretation through quantitation of equilibrium binding constants (KD).
The shift in the melting point described as a ΔTm is proportional to the concentration and affinity of the ligand. The compound potency may be compared as a rank order of either ATm values at a single compound concentration or in terms of KD values, estimated from concentration response curves.
ThermoFluor® experiments were carried out using instruments owned by Janssen Research and Discovery, L.L.C. through its acquisition of 3-Dimensional Pharmaceuticals, Inc. 1,8-ANS (Invitrogen) was used as a fluorescent dye. Protein and compound solutions are dispensed into black 384-well polypropylene PCR microplates (Abgene) and overlayed with silicone oil (1 µL, Fluka, type DC 200) to prevent evaporation.
Bar-coded assay plates are robotically loaded onto a thermostatically controlled PCR-type thermal block and then heated at a typical ramp-rate of 1 °C/minute for all experiments. Fluorescence was measured by continuous illumination with UV light (Hamamatsu LC6) supplied via fiber optic and filtered through a band-pass filter (380-400 nm; >6 OD cutoff). Fluorescence emission of the entire 384-well plate was detected by measuring light intensity using a CCD camera (Sensys, Roper Scientific) filtered to detect 500 ± 25 nm, resulting in simultaneous and independent readings of all 384 wells. Images were collected at each temperature, and the sum of the pixel intensity in a given area of the assay plate was recorded versus temperature. Reference wells contained RORyt without compounds, and the assay conditions were as follows: • 0.065 mg/mL RORγt • 60 µM 1,8-ANS • 100 mM Hepes, pH 7.0 • 10 mM NaCl • 2.5 mM GSH • 0.002% Tween-20
Project compounds were arranged in a pre-dosed mother plate (Greiner Bio-one) wherein compounds are serially diluted in 100% DMSO by 1:2 from a high concentration of 10 mM over 12 columns within a series (column 12 is a reference well containing DMSO, no compound). The compounds were robotically dispensed directly into assay plates (1x = 46 nL) using a Hummingbird capillary liquid handling instrument (Digilab). Following compound dispense, protein and dye in buffer was added to achieve the final assay volume of 3 µL, followed by 1 µL of silicone oil.

human RORγt LBD = target: T2, human RORγt LBD (Homo sapiens, UniProt P51449); assay: RORγt (LBD) Reporter Assay (GAL4 luciferase, HEK293T cells); format: cell-based; conditions: for inhibition at 6 µM: HEK-293T; for IC50: compounds for 24 hours
T2 construct: expressed in transfected cells; host or cells: HEK293T
T2 sequence (P51449 258-518): T1 sequence (P51449 258-518)
Procedure: Compounds were assessed for RORgt functional modulation using either the RORgt ligand binding domain (LBD) reporter assay, or the RORgt full-length (FL) reporter assay.
A reporter assay was used to test functional activity of RORγt modulatory compounds on transcriptional activation driven by the RORγt LBD. Cells used in the assay were co-transfected with two constructs. The first construct, pBIND-RORγt LBD, contained the wild type human RORγt LBD fused to the DNA binding domain of the GAL4 protein. The second construct, pGL4.31 (Promega Cat no. C935A), contained multiple GAL4 responsive DNA elements upstream of firefly luciferase. […] The mutant construct was called pBIND-RORγt-AF2.
The pBIND vector contains the GAL4 DNA Binding Domain (GAL4 DBD) and the renilla luciferase gene under control of the SV40 promoter. Renilla luciferase expression serves as a control for transfection efficiency and cell viability.
The reporter assay was performed by transiently transfecting HEK293T cells with 5 µg of pBIND-RORγt LBD or pBIND-RORγt LBD-AF2 and 5 µg pGL4.31 (Promega Cat no. C935A) using Fugene 6 (Invitrogen Cat no. E2691) at a 1:6 ratio of DNA: Fugene 6 in a T-75 flask in which cells were at least 80% confluent. Twenty four hours after bulk transfection, cells were plated into 96-well plates at 50,000 cells/well in phenol-red free DMEM containing 5% Lipid Reduced FCS and Pen/Strep. Six hours after plating, cells were treated with compounds for 24 hours. Media was removed and cells were lysed with 50 µL 1x Glo Lysis Buffer (Promega). Dual Glo Luciferase Reagent (50 µL/well) was then added and firefly luciferase luminescence was read on an Envision after a ten minute incubation. Finally, Stop and Glo reagent (50 µL/well) was added and renilla luciferase luminescence was read on an Envision after a ten minute incubation. To calculate the effect of compounds on RORγt activity, the ratio of firefly to renilla luciferase was determined and plotted against compound concentration. Agonist compounds increase RORγt-driven luciferase expression, and antagonist or inverse agonist compounds decrease luciferase expression.

SMILES | Kd [1] [µM] | inhibition at 6 µM (human RORγt LBD; 6 µM compound) [%] | IC50 (human RORγt LBD) [µM] | RORγt (LBD) Reporter Assay, % inhibition @ 6 µM (human RORγt LBD; 6 µM compound, 6 µM) [%]
OC(c1ccc(Cl)cc1)c1ccc2nc(Cl)c(-c3ccccc3)c(Cl)c2c1 (centres unmarked) [Example 35, (4-Chlorophenyl)(2,4-dichloro-3-phenylquinolin-6-yl)methanol] | 25 | 45 | > 6 | 
OC(c1ccncc1)c1ccc2nc(Cl)c(-c3ccccc3)c(Cl)c2c1 (centres unmarked) [Example 25, (2,4-Dichloro-3-phenylquinolin-6-yl)(pyridin-4-yl)methanol•TFA] | 1.2 | 47 | > 6 | 
OC(c1ccncc1)c1ccc2nc(Cl)c(Cc3ccccc3)c(Cl)c2c1 (centres unmarked) [Example 24, (3-Benzyl-2,4-dichloroquinolin-6-yl)(pyridin-4-yl)methanole•TFA] | 0.23 | 41 | > 6 | 
Cn1cncc1C(O)c1ccc2nc(Cl)c(Cc3ccc(-n4cccn4)cc3)c(Cl)c2c1 (centres unmarked) [Example 7, (3-(4-(1H-Pyrazol-1-y1)benzyl)-2,4-dichloroquinolin-6-yl)(1-methyl-1H-imidazol-5-yl)methanol] | 0.48 | 93 | ~2 | 
COc1nc2ccc(C(O)c3oc(C)nc3C)cc2c(Cl)c1Cc1ccc(C(F)(F)F)cc1 (centres unmarked) [Example 19, (4-Chloro-2-methoxy-3-(4-(trifluoromethyl)benzyl)quinolin-6-yl)(2,4-dimethyloxazol-5-yl)methanol] | 0.35 | 79 | 0.24 | 
OC(c1ccc(Cl)cc1)c1ccc2nc(Cl)c(-c3ccccc3Cl)c(Cl)c2c1 (centres unmarked) [Example 26, (4-Chlorophenyl)(2,4-dichloro-3-(2-chlorophenyl)quinolin-6-yl)methanol] | 1.4 | 68 | ~3 | 
COc1nc2ccc(C(O)C3CCN(C(C)=O)CC3)cc2c(Cl)c1Cc1ccc(C(F)(F)F)cc1 (centres unmarked) [Example 6, (1-Acetylpiperidin4-yl){4-chloro-2-methoxy-3-[4-(trifluoromethyl)benzyl]quinolin-6-yl}methanol] | 0.22 | 95 | 0.79 | 
Cc1cc(C(O)c2cncn2C)cc2c(Cl)c(-c3ccccc3)c(Cl)nc12 (centres unmarked) [Example 4, (2,4-Dichloro-8-methyl-3-phenylquinolin-6-yl)(1-methyl-1H-imidazol-5-yl)methanol•TFA] | 4.9 | -1 | > 6 | 
Cc1ncc(C(O)c2ccc3nc(Cl)c(-c4ccccc4)c(Cl)c3c2)n1C (centres unmarked) [Example 13, (2,4-Dichloro-3-phenylquinolin-6-yl)(1,2-dimethyl-1H-imidazol-5-yl)methanol] | 1.2 | 43 | > 6 | 
COc1nc2c(C)cc(C(O)c3cncn3C)cc2c(Cl)c1Cc1ccc(-n2cccn2)cc1 (centres unmarked) [Example 12, (3-(4-(1H-Pyrazol-1-yl)benzyl)-4-chloro-2-methoxy-8-methylquinolin-6-yl)(1-methyl-1H-imidazol-5-yl)methanole•TFA] | 0.6 | 92 | ~1 | 
COc1nc2c(C)cc(C(O)c3cncn3C)cc2c(Cl)c1Cc1cccc(C(F)(F)F)c1 (centres unmarked) [Example 11, (4-Chloro-2-methoxy-8-methyl-3-(3-(trifluoromethyl)benzyl)quinolin-6-yl)(1-methyl-1H-imidazol-5-yl)methanol] | 0.15 | 24 | > 6 | 
COc1nc2ccc(C(O)c3ccc(C)nc3C)cc2cc1Cc1ccc(C(F)(F)F)cc1 (centres unmarked) [Example 16, (2,6-Dimethylpyridin-3-yl)(2-methoxy-3-(4-(trifluoromethyl)benzyl)quinolin-6-yl)methanol] | 4.8 | 88 | 1.9 | 
Cn1cncc1C(O)c1ccc2nc(Cl)c(-c3ccccc3Cl)c(Cl)c2c1 (centres unmarked) [Example 3, (2,4-Dichloro-3-(2-chlorophenyl)quinolin-6-yl)(1-methyl-1H-imidazol-5-yl) methanol] | 0.45 |  |  | 

Other lines, results leading:

Kd [1] [µM] | inhibition at 6 µM (human RORγt LBD; 6 µM compound) [%] | IC50 (human RORγt LBD) [µM] | RORγt (LBD) Reporter Assay, % inhibition @ 6 µM (human RORγt LBD; 6 µM compound, 6 µM) [%] | SMILES
0.26 | 88 | 0.69 |  | Cc1ncc(C(O)c2ccc3nc(N4CCC4)c(Cc4ccc(-n5cccn5)cc4)c(Cl)c3c2)n1C (single isomer, unassigned) [Example 21b, {2-Azetidin-1-yl-4-chloro-3-[4-(1H-pyrazol-1-yl)benzyl]quinolin-6-yl}(1,2-dimethyl-1H-imidazol-5-yl)methanol]
 |  |  | 37 | COc1nc2ccc(C(O)c3cnc(C)n3C)cc2c(Cl)c1Cc1ccc(F)cc1 (single isomer, unassigned) [Example 8c]
0.074 | 101 | 0.043 |  | COc1nc2ccc(C(O)c3cnc(C)n3C)cc2c(Cl)c1Cc1ccc(C(F)(F)F)cc1 (centres unmarked) [Example 15a, (4-Chloro-2-methoxy-3-(4-(trifluoromethyl)benzyl)quinolin-6-yl)(1,2-dimethyl-1H-imidazol-5-yl)methanol]
0.081 | 92 | 0.25 |  | Cc1ncc(C(O)c2ccc3nc(N4CCC4)c(Cc4ccc(C(F)(F)F)cc4)c(Cl)c3c2)n1C (centres unmarked) [Example 22a, {2-Azetidin-1-yl-4-chloro-3-[4-(trifluoromethyl)benzyl]quinolin-6-yl}(1,2-dimethyl-1H-imidazol-5-yl)methanol]
0.14 | 95 | 0.18 |  | Cc1ccc(C(O)c2ccc3nc(N4CCC4)c(Cc4ccc(C(F)(F)F)cc4)c(Cl)c3c2)c(C)n1 (centres unmarked) [Example 23a, {2-Azetidin-1-yl-4-chloro-3-[4-(trifluoromethyl)benzyl]quinolin-6-yl}(2,6-dimethylpyridin-3-yl)methanol]
0.29 | 98 | 0.51 |  | COc1nc2ccc(C(O)c3cncn3C)cc2c(Cl)c1Cc1ccc(C(F)(F)F)cc1 (single isomer, unassigned) [Example 18b, (4-Chloro-2-methoxy-3-(4-(trifluoromethyl)benzyl)quinolin-6-yl)(1-methyl-1H-imidazol-5-yl)methanol]
0.18 | 40 |  |  | COc1nc2ccc(C(O)c3cnc(C)n3C)cc2c(Cl)c1Cc1ccc(F)cc1 (centres unmarked) [Example 8a]
0.071 |  |  |  | COc1nc2ccc(C(O)c3ccc(C)nc3C)cc2c(Cl)c1Cc1ccc(C(F)(F)F)cc1 (centres unmarked) [Example 14a, (4-Chloro-2-methoxy-3-(4-(trifluoromethyl)benzyl)quinolin-6-yl)(2,6-dimethylpyridin-3-yl)methanol]
